Measurements published in ChEMBL document CHEMBL4834424, “Targeting Chikungunya Virus Replication by Benzoannulene Inhibitors” (J Med Chem, 2021).
The source made the active and inactive calls. No cut-off for these calls is given here.

How the values were obtained:
Onyong-nyong virus = experiment: (§1) Antiviral activity against O'nyong-nyong virus infected in Asian tiger mosquito C6/36 cells assessed as reduction in virus titer in cell supernatant by measuring inhibition of plaque formation using Vero cells and measured following infection of supernatants with Vero cells for 48 hrs pi by serial dilution plaque based methylene blue dye analysis; type: functional
[1] = Cytotoxicity against HEK293 cells at 10 uM; type: cell-based; details: human
Chikungunya virus [2] = experiment: Antiviral activity against resistance mutation induced CHIKV-117/119 infected in […] cells assessed as viral infectivity in Vero cells at 10 uM measured up to 24 hrs of post infection by supernatant was quantified by plaque assay; type: functional, organism-based; details: time hrs <=24
[3] = test system: Venezuelan equine encephalitis virus; experiment: (§2) Antiviral activity against Venezuelan equine encephalitis virus TC83 infected in Asian tiger mosquito C6/36 cells assessed as reduction in virus titer in cell supernatant by measuring inhibition of plaque formation using Vero cells and measured following infection of supernatants with Vero cells for 48 hrs pi by serial dilution plaque based methylene blue dye analysis; type: functional
Chikungunya virus [4] = experiment: as §1, with “CHIKV 37997” for “O'nyong-nyong virus”; type: functional; details: Chikungunya virus, 37997, C6
[5] = as §1, with “Ross river” for “O'nyong-nyong”; type: functional; details: La Crosse virus
Chikungunya virus [6] = type: functional, organism-based; details: 181-25, NHDF, dose 20.0 µM, time 13.0 hrs
Chikungunya virus [7] = type: functional, organism-based; details: 181-25, NHDF, dose 20.0 µM, time 13.0 hrs; remark: listed apart in the source
dengue virus type 2 = experiment: as §1, with “DENV2” for “O'nyong-nyong virus”, “HEK293” for “Asian tiger mosquito C6/36”, “at 10 uM” for “and”; type: functional
Chikungunya virus [8] = type: functional, organism-based; details: 181-25, NHDF, dose 20.0 µM, time 13.0 hrs; remark: listed apart in the source
Mayaro virus = experiment: Antiviral activity against Mayaro virus TRVL infected in Asian tiger mosquito C6/36 cells assessed as reduction in virus titer in cell supernatant by measuring inhibition of plaque formation using Vero cells and measured following infection of supernatants with Vero cells for 48 hrs pi by serial dilution plaque based methylene blue dye analysis; type: functional
Chikungunya virus [9] = experiment: Antiviral activity against CHIKV-nLuc RNA transfected NHDF cells assessed as decrease in CHIKV RNA at 10 uM pretreated 1 hr before transfection measured after 12 hrs by Nano-Glo luciferase assay; type: functional, organism-based; details: time 13.0 hrs
[10] = target: Dihydroorotate dehydrogenase (quinone), mitochondrial (Homo sapiens, UniProt Q02127)
Chikungunya virus [11] = experiment: Antiviral activity against resistance mutation induced CHIKV-119 infected in […] cells assessed as viral infectivity in Vero cells at 10 uM measured up to 24 hrs of post infection by supernatant was quantified by plaque assay; type: functional, organism-based; details: time hrs <=24
West Nile virus = experiment: as §1, with “West nile” for “O'nyong-nyong”, “HEK293” for “Asian tiger mosquito C6/36”, “at 10 uM” for “and”; type: functional
Una virus = experiment: Antiviral activity against Una virus MAC150 infected in Asian tiger mosquito C6/36 cells assessed as reduction in virus titer in cell supernatant by measuring inhibition of plaque formation using Vero cells and measured following infection of supernatants with Vero cells for 48 hrs pi by serial dilution plaque based methylene blue dye analysis; type: functional
Chikungunya virus [12] = experiment: (§3) Antiviral activity against CHIKV infected in human NHDF cells assessed as reduction in virus titer in cell supernatant by measuring inhibition of plaque formation using Vero cells at 10 uM pretreated with NHDF cells followed by infected with virus incubated for 24 hrs and measured following infection of supernatants with Vero cells for 48 hrs by plaque based methylene blue dye analysis; type: functional; details: time 72 hrs
Chikungunya virus [13] = experiment: as §1, with “CHIKV 99659” for “O'nyong-nyong virus”; type: functional; details: Chikungunya virus, 99659, C6
[14] = test system: Venezuelan equine encephalitis virus; experiment: as §2, with “human […]” for “Asian tiger mosquito C6/36”, “at 10 uM” for “and”; type: functional, NHDF
Chikungunya virus [15] = type: functional, organism-based; details: 181-25, NHDF, dose 20.0 µM, time 13.0 hrs; remark: listed apart in the source
Chikungunya virus [16] = experiment: as §3, with “mouse NIH3T3” for “human NHDF”, “cells” for “cells at 10 uM”, “NIH3T3” for “NHDF”; type: functional; details: dose 10 µM
Chikungunya virus [17] = experiment: Antiviral activity against CHIKV infected in IFN regulatory factor 3 telomerized human fibroblast cells assessed as reduction in virus titer in cell supernatant by measuring inhibition of plaque formation using Vero cells […] followed by infected with virus incubated for 24 hrs and measured following infection of supernatants with Vero cells for 48 hrs by plaque based …; type: functional; details: time 72 hrs
Chikungunya virus [18] = experiment: Antiviral activity against CHIKV-nLuc RNA transfected NHDF cells assessed as decrease in Nano-luc signal at 20 uM pretreated 24 hrs before transfection in presence of uridine measured after 24 hrs by Nano-Glo luciferase assay; type: functional, organism-based; details: time 48.0 hrs
Chikungunya virus [19] = experiment: Antiviral activity against resistance mutation induced CHIKV-117 infected in […] cells assessed as viral infectivity in Vero cells at 10 uM measured up to 24 hrs of post infection by supernatant was quantified by plaque assay; type: functional, organism-based; details: time hrs <=24
Chikungunya virus [20] = type: functional, organism-based; details: 181-25, Vero, dose 10.0 µM, time 20.0 hrs
Chikungunya virus [21] = experiment: Antiviral activity against CHIKV-nLuc RNA transfected NHDF cells assessed as decrease in Nano-luc signal at 20 uM pretreated 24 hrs before transfection in presence of guanosine measured after 24 hrs by Nano-Glo luciferase assay; type: functional, organism-based
[22] = Cytotoxicity against human NHDF cells assessed as cell viability measured after 24 hrs by Cell Titer Glo luminescent assay; type: cell-based; details: NHDF cells
Chikungunya virus [23] = experiment: as §1, with “CHIKV LR2006-OPY1” for “O'nyong-nyong virus”; type: functional
Chikungunya virus [24] = experiment: as §3, with “cells” for “cells at 10 uM”; type: functional, organism-based

Chain of Dihydroorotate dehydrogenase (quinone), mitochondrial (Q02127 whole entry): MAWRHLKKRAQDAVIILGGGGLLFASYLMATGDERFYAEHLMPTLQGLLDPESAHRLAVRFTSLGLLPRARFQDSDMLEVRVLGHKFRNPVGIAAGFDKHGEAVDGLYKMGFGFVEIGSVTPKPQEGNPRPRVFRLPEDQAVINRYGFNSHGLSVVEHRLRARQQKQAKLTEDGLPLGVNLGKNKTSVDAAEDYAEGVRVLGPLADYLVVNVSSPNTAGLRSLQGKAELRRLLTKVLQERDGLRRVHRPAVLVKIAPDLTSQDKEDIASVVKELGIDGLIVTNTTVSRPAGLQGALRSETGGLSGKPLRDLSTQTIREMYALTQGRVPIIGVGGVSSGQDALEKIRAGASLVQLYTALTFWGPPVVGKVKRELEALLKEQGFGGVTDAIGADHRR

COc1cc2c(cc1NC(=O)c1ccc(C(C)(C)C)cc1)CCCCC2
EC90 (Onyong-nyong virus): 0.18 µM
CC50 [1]: > 30 µM
Activity (Chikungunya virus [2]): Active
EC90 [3]: 2.9 µM
EC90 (Chikungunya virus [4]): 0.18 µM
EC90 [5]: 0.21 µM
inhibition (Chikungunya virus [6]): Active
inhibition (Chikungunya virus [7]): Active
log(activity) (dengue virus type 2): 1.5
inhibition (Chikungunya virus [8]): Active
EC90 (Mayaro virus): 0.25 µM
inhibition (Chikungunya virus [9]): Active
IC50 [10]: 3.5 µM
Activity (Chikungunya virus [11]): Active
log(activity) (West Nile virus): 2
EC90 (Una virus): 0.34 µM
log(activity) (Chikungunya virus [12]): 4
EC90 (Chikungunya virus [13]): 0.78 µM
log(activity) [14]: 2.7
inhibition (Chikungunya virus [15]): Active
EC90 (Chikungunya virus [16]): 1.01 µM
EC90 (Chikungunya virus [17]): 4.87 µM
Activity (Chikungunya virus [18]): inactive
Activity (Chikungunya virus [19]): Active
inhibition (Chikungunya virus [20]): Active
Activity (Chikungunya virus [21]): Active
CC50 at 24 h [22]: 78.5 µM
EC90 (Chikungunya virus [23]): 0.15 µM

CC(C)(C)c1ccc(NC(=O)c2ccc3c(c2)CCCCC3)cc1
CC50 [1]: > 30 µM
EC50 (Chikungunya virus [24]): 7 µM
log(activity) (Chikungunya virus [12]): 4.2
CC50 at 24 h [22]: > 30 µM
